Test results taken from US20060069132A1, “Azolecarboxamide herbicides” (priority 2004, published 2006).

Experiments:
corn = test: Test B pre-/postemergence herbicide test; format: in vivo, Zea mays; conditions: for Plant response rating (0 to 100 scale), Corn: 0 is no effect; for Plant response rating (0 to 100 scale), Corn / Plant response rating, Corn: preemergence; for Corn plant response rating: postemergence; for Plant response rating, Corn: 0 = no effect, 100 = complete control
In short: (§1)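 Seeds were planted and treated preemergence with compounds formulated in a non-phytotoxic solvent mixture containing surfactant, while plants at the 1- to 4-leaf stage (2 to 18 cm) received postemergence sprays. Flooded paddy plants were grown to the 2-leaf stage. After 13 to 15 days in a greenhouse, injury was visually rated 0–100 against untreated controls.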

wild oat = test: Test B postemergence herbicide test; format: in vivo, Avena fatua; conditions: postemergence
In short: (§2)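 Formulated test chemicals went onto postemergence plants measuring 2 to 18 cm, at one to four leaves. For the paddy assay, species had reached two leaves. Scoring took place 13–15 days later by eye, relative to untreated plants, using 0 for no effect up to 100 for full control.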

Surinam grass = test: Test B pre-/postemergence herbicide test; format: in vivo, Urochloa decumbens; conditions: for Plant response rating (0 to 100 scale), Surinam Grass: 0 is no effect; for Plant response rating (0 to 100 scale), Surinam Grass / Plant response rating, Surinam Grass: preemergence; for Surinam Grass plant response rating: postemergence; for Plant response rating, Surinam Grass: 0 = no effect, 100 = complete control
In short: as §1

morningglory = test: Test B pre-/postemergence herbicide test; format: in vivo, Ipomoea coccinea; conditions: for Plant response rating (0 to 100 scale), Morningglory: 0 is no effect; for Plant response rating (0 to 100 scale), Morningglory / Plant response rating, Morningglory: preemergence; for Morningglory plant response rating: postemergence; for Plant response rating, Morningglory: 0 = no effect, 100 = complete control
In short: (§3)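 Response was scored visually 13 to 15 days after treatment against untreated greenhouse controls, 0 meaning no effect and 100 complete control. Formulations (solvent mixture plus surfactant) went onto soil after planting, onto foliage of 1- to 4-leaf plants, and onto 2-leaf plants in a flooded paddy set including rice and barnyardgrass.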

barnyardgrass = test: Test B pre-/postemergence herbicide test; format: in vivo, Echinochloa crus-galli; conditions: for Plant response rating (0 to 100 scale), Barnyardgrass: 0 is no effect; for Plant response rating (0 to 100 scale), Barnyardgrass / Plant response rating, Barnyardgrass: preemergence; for Barnyardgrass plant response rating: postemergence; for Plant response rating, Barnyardgrass: 0 = no effect, 100 = complete control
In short: as §3

cocklebur = test: Test B pre-/postemergence herbicide test; format: in vivo, Xanthium strumarium; conditions: for Plant response rating (0 to 100 scale), Cocklebur: 0 is no effect; for Plant response rating (0 to 100 scale), Cocklebur / Plant response rating, Cocklebur: preemergence; for Cocklebur plant response rating: postemergence; for Plant response rating, Cocklebur: 0 = no effect, 100 = complete control
In short: as §3

velvetleaf = test: Test B pre-/postemergence herbicide test; format: in vivo, Abutilon theophrasti; conditions: for Velvetleaf plant response rating: postemergence
In short: as §1

giant foxtail = test: Test B pre-/postemergence herbicide test; format: in vivo, Setaria faberi; conditions: for Plant response rating (0 to 100 scale), Foxtail, Giant: 0 is no effect; for Plant response rating (0 to 100 scale), Foxtail, Giant / Plant response rating, Foxtail, Giant: preemergence; for Foxtail, Giant plant response rating: postemergence; for Plant response rating, Foxtail, Giant: 0 = no effect, 100 = complete control
In short: as §1

wheat = test: Test B postemergence herbicide test; format: in vivo, Triticum aestivum; parameters: key to Wheat plant response rating: 0 = no effect, 100 = complete control; conditions: postemergence
In short: as §2

[1] = test system: small flower umbrella sedge; test: Test B flooded paddy test; format: in vivo, Cyperus difformis; conditions: 1000 g ai/ha, scale 0 to 100 (0 no effect, 100 complete control)
In short: (§4)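 Visual control ratings, 0–100 versus untreated controls, taken after 13 to 15 days in the greenhouse. Blackgrass received a postemergence spray at the 1- to 4-leaf stage (2–18 cm); ducksalad, umbrella sedge and barnyardgrass were flooded-paddy treated at 2 leaves.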

lambsquarters = test: Test B pre-/postemergence herbicide test; format: in vivo, Chenopodium album; conditions: for Plant response rating (0 to 100 scale), Lambsquarters: 0 is no effect; for Plant response rating (0 to 100 scale), Lambsquarters / Plant response rating, Lambsquarters: preemergence; for Lambsquarters plant response rating: postemergence; for Plant response rating, Lambsquarters: 0 = no effect, 100 = complete control
In short: as §1

pigweed = test: Test B pre-/postemergence herbicide test; format: in vivo, Amaranthus retroflexus; conditions: for Plant response rating (0 to 100 scale), Pigweed: 0 is no effect; for Plant response rating (0 to 100 scale), Pigweed / Plant response rating, Pigweed: preemergence; for Pigweed plant response rating: postemergence; for Plant response rating, Pigweed: 0 = no effect, 100 = complete control
In short: as §1

large crabgrass = test: Test B pre-/postemergence herbicide test; format: in vivo, Digitaria sanguinalis; conditions: for Plant response rating (0 to 100 scale), Crabgrass, Large: 0 is no effect; for Plant response rating (0 to 100 scale), Crabgrass, Large / Plant response rating, Crabgrass, Large: preemergence; for Crabgrass, Large plant response rating: postemergence; for Plant response rating, Crabgrass, Large: 0 = no effect, 100 = complete control
In short: as §1

blackgrass = test: Test B postemergence herbicide test; format: in vivo, Alopecurus myosuroides; conditions: postemergence
In short: as §4

[2] = 125 g ai/ha, 100 is complete control
[3] = 125 g ai/ha, visual rating, scale 0 (no effect) to 100 (complete control)
[4] = 500 g ai/ha, scale 0 to 100, 0 is no effect, 100 is complete control

C#CCNC(=O)c1cccc(NC(=O)c2sc(C(C)(C)C)nc2CC)c1 [Compound 319]
Plant response rating (0 to 100 scale), Corn (corn; [2]): 10
Corn plant response rating (corn; [3]): 20
Plant response rating, Corn (corn; 500 g ai/ha, visual rating): 40
Corn plant response rating (corn; [4]): 20
Oat, Wild plant response rating (wild oat; [3]): 20
Oat, Wild plant response rating (wild oat; [4]): 20
Plant response rating (0 to 100 scale), Surinam Grass (Surinam grass; [2]): 20
Surinam Grass plant response rating (Surinam grass; [3]): 10
Plant response rating, Surinam Grass (Surinam grass; 500 g ai/ha, visual rating): 60
Surinam Grass plant response rating (Surinam grass; [4]): 20
Plant response rating (0 to 100 scale), Morningglory (morningglory; [2]): 10
Morningglory plant response rating (morningglory; [3]): 10
Plant response rating, Morningglory (morningglory; 500 g ai/ha, visual rating): 20
Morningglory plant response rating (morningglory; [4]): 20
Plant response rating (0 to 100 scale), Barnyardgrass (barnyardgrass; [2]): 50
Barnyardgrass plant response rating (barnyardgrass; [3]): 0
Plant response rating, Barnyardgrass (barnyardgrass; 500 g ai/ha, visual rating): 80
Barnyardgrass plant response rating (barnyardgrass; [4]): 20
Plant response rating (0 to 100 scale), Cocklebur (cocklebur; [2]): 0
Cocklebur plant response rating (cocklebur; [3]): 20
Plant response rating, Cocklebur (cocklebur; 500 g ai/ha, visual rating): 10
Cocklebur plant response rating (cocklebur; [4]): 40
Plant response rating (0 to 100 scale), Velvetleaf (velvetleaf; 125 g ai/ha, 0 is no effect, 100 is complete control, preemergence): 0
Velvetleaf plant response rating (velvetleaf; [3]): 10
Plant response rating, Velvetleaf (velvetleaf; 500 g ai/ha, visual rating, 0 = no effect, 100 = complete control, preemergence): 30
Velvetleaf plant response rating (velvetleaf; [4]): 20
Plant response rating (0 to 100 scale), Foxtail, Giant (giant foxtail; [2]): 20
Foxtail, Giant plant response rating (giant foxtail; [3]): 20
Plant response rating, Foxtail, Giant (giant foxtail; 500 g ai/ha, visual rating): 50
Foxtail, Giant plant response rating (giant foxtail; [4]): 30
Wheat plant response rating (wheat; [3]): 10
Wheat plant response rating (wheat; [4]): 30
Sedge, Umbrella plant response rating [1]: 80
Plant response rating (0 to 100 scale), Lambsquarters (lambsquarters; [2]): 20
Lambsquarters plant response rating (lambsquarters; [3]): 50
Plant response rating, Lambsquarters (lambsquarters; 500 g ai/ha, visual rating): 100
Lambsquarters plant response rating (lambsquarters; [4]): 60
Plant response rating (0 to 100 scale), Pigweed (pigweed; [2]): 60
Pigweed plant response rating (pigweed; [3]): 30
Plant response rating, Pigweed (pigweed; 500 g ai/ha, visual rating): 100
Pigweed plant response rating (pigweed; [4]): 40
Plant response rating (0 to 100 scale), Crabgrass, Large (large crabgrass; [2]): 50
Crabgrass, Large plant response rating (large crabgrass; [3]): 20
Plant response rating, Crabgrass, Large (large crabgrass; 500 g ai/ha, visual rating): 100
Crabgrass, Large plant response rating (large crabgrass; [4]): 20
Blackgrass plant response rating (blackgrass; [3]): 0
Blackgrass plant response rating (blackgrass; [4]): 0

CCn1nc(C(C)(C)C)cc1C(=O)Nc1cc(OC(F)(F)F)ccc1F [Compound 338]
Plant response rating (0 to 100 scale), Corn (corn; [2]): 10
Corn plant response rating (corn; [3]): 10
Plant response rating, Corn (corn; 500 g ai/ha, visual rating): 10
Corn plant response rating (corn; [4]): 20
Oat, Wild plant response rating (wild oat; [3]): 0
Oat, Wild plant response rating (wild oat; [4]): 40
Plant response rating (0 to 100 scale), Surinam Grass (Surinam grass; [2]): 20
Surinam Grass plant response rating (Surinam grass; [3]): 20
Plant response rating, Surinam Grass (Surinam grass; 500 g ai/ha, visual rating): 60
Surinam Grass plant response rating (Surinam grass; [4]): 40
Plant response rating (0 to 100 scale), Morningglory (morningglory; [2]): 0
Morningglory plant response rating (morningglory; [3]): 60
Plant response rating, Morningglory (morningglory; 500 g ai/ha, visual rating): 10
Morningglory plant response rating (morningglory; [4]): 100
Plant response rating (0 to 100 scale), Barnyardgrass (barnyardgrass; [2]): 20
Barnyardgrass plant response rating (barnyardgrass; [3]): 20
Plant response rating, Barnyardgrass (barnyardgrass; 500 g ai/ha, visual rating): 80
Barnyardgrass plant response rating (barnyardgrass; [4]): 40
Plant response rating (0 to 100 scale), Cocklebur (cocklebur; [2]): 0
Cocklebur plant response rating (cocklebur; [3]): 10
Plant response rating, Cocklebur (cocklebur; 500 g ai/ha, visual rating): 0
Cocklebur plant response rating (cocklebur; [4]): 10
Velvetleaf plant response rating (velvetleaf; [3]): 20
Velvetleaf plant response rating (velvetleaf; [4]): 50
Plant response rating (0 to 100 scale), Foxtail, Giant (giant foxtail; [2]): 30
Foxtail, Giant plant response rating (giant foxtail; [3]): 20
Plant response rating, Foxtail, Giant (giant foxtail; 500 g ai/ha, visual rating): 100
Foxtail, Giant plant response rating (giant foxtail; [4]): 30
Wheat plant response rating (wheat; [3]): 0
Wheat plant response rating (wheat; [4]): 10
Sedge, Umbrella plant response rating [1]: 80
Plant response rating (0 to 100 scale), Lambsquarters (lambsquarters; [2]): 60
Lambsquarters plant response rating (lambsquarters; [3]): 10
Plant response rating, Lambsquarters (lambsquarters; 500 g ai/ha, visual rating): 100
Lambsquarters plant response rating (lambsquarters; [4]): 50
Plant response rating (0 to 100 scale), Pigweed (pigweed; [2]): 70
Pigweed plant response rating (pigweed; [3]): 60
Plant response rating, Pigweed (pigweed; 500 g ai/ha, visual rating): 100
Pigweed plant response rating (pigweed; [4]): 80
Plant response rating (0 to 100 scale), Crabgrass, Large (large crabgrass; [2]): 80
Crabgrass, Large plant response rating (large crabgrass; [3]): 20
Plant response rating, Crabgrass, Large (large crabgrass; 500 g ai/ha, visual rating): 100
Crabgrass, Large plant response rating (large crabgrass; [4]): 60
Blackgrass plant response rating (blackgrass; [3]): 20
Blackgrass plant response rating (blackgrass; [4]): 40
